The source of these data is ChEMBL document CHEMBL1150043, “Pachyclavulariolides M-R, six novel diterpenoids from a Taiwanese soft coral Pachyclavularia violacea” (2003).

The subject of this experiment is P388. The experiment is described as follows: Cytotoxicity against mouse P388 cells by MTT method. Format: functional. The conditions noted are these: read-out: ED50 (the source's name). On the technique in general: Tetrazolium dyes change colour on reduction, which living cells bring about.

Molecules are shown by their SMILES. ≈ marks a conversion by molar mass, not a printed value.

`CC(=O)O[C@@H]1[C@@H](OC(C)=O)C2=C(C)C(=O)O[C@]2(O)C[C@@]2(C)O[C@@H]2CC[C@H](C)[C@H]2CC[C@]1(C)O2` [PACHYCLAVULARIOLIDE M]: the EC50 was determined as 3.2 µg/mL (≈ 6.86 µM).
